The target of assay [1] is Glutamine synthetase (Ovis aries). The assay can be described thus: Compound was evaluated for binding affinity by the inhibition of Glutamine synthetase (Ovine brain) activity using biosynthetic assay [competitive inhibition].
The target of assay [2] is Glutamine synthetase (Escherichia coli) (UniProt P0A9C5). Description: Compound was evaluated for binding affinity by the inhibition of Glutamine synthetase (Escherichia coli) activity using biosynthetic assay [mixed Non-competitive inhibition].
Chain of Glutamine synthetase (Escherichia coli) (P0A9C5 whole entry, looked up): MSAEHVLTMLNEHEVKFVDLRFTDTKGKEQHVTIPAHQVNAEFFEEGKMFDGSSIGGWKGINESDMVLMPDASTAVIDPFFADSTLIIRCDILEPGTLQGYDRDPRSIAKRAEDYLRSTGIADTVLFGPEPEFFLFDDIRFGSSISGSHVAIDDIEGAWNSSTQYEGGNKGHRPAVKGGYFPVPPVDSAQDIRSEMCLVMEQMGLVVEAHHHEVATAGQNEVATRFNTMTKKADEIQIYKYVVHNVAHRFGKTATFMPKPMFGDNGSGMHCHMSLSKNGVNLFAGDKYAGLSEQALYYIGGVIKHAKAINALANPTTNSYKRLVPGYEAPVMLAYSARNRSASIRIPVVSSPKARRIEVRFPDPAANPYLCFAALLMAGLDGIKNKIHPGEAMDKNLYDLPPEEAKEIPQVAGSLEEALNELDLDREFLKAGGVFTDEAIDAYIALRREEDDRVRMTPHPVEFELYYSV
The target of assay [3] is Glutamine synthetase (Pisum sativum). The assay can be described thus: Compound was evaluated for binding affinity by the inhibition of Glutamine synthetase (Pea seed) activity using biosynthetic assay [noncompetitive inhibition].

For orientation: Ki means the dissociation constant of the complex between target and ligand, obtained from inhibition or displacement. For the compound `NC(CCP(=O)(O)CP(=O)(O)O)C(=O)O` (stereo not drawn) [2-ammonio-4-[hydroxy(phosphonomethyl)phosphoryl]butanoate], the Ki in assay [1] was found to be 750 µM; in assay [2] it was 75 µM; in assay [3], 250 µM.

The values above are taken from BindingDB's records for doi:10.1021/jm00394a022 (Pennsylvania State University, 1987).
